Test [1] is described as follows: "writhing syndrome" test for analgesic activity (phenyl p-quinone). Particulars: control approximately 30 per pair, active if 18 or less. The test is classed as in vivo, male Swiss albino mice. How it is done: This method is based upon the reduction of the number of writhes following the intraperitoneal injection of one mg./kg. of body weight of phenyl p-quinone in male Swiss albino mice weighing 15-25 g. The syndrome is characterized by intermittent contractions of the abdomen, twisting and turning of the trunk, and extension of the hind legs beginning 3 to 5 minutes after injection of the phenyl p-quinone. The test compounds are administered orally at the indicated dose to groups of 2 mice each, 30 minutes before injection of the phenyl p-quinone.

Test [2] can be described thus: reduction of spontaneous motor activity (Animax Activity Counter). It counts as in vivo. Particulars: Rattus norvegicus, 5 min; oral, rats, 5 minute period; read-out: MDD50 (effective dose that causes a 50% reduction in motor activity). The protocol: A useful test for anti-psychotic activity consists of measuring the reduction of spontaneous motor activity in animals.
Groups of 4 rats are treated orally with the test compound dissolved or suspended in starch vehicle at the maximum tolerated dose. At the estimated time of peak effect, the animals are placed singly into an Animax Activity Counter and the activity of each rat is recorded over a 5 minute period. The activity counts are compared to historical or parallel control values to determine significant increased or decreased locomotor activity.

Test [3] can be described thus: Discrete Trial Conditioned Avoidance Test. It counts as in vivo, male Long-Evans rats. The conditions noted are these: Rattus norvegicus, read-out: ED50 (reduces avoidance response by 50% as compared to controls); oral, male Long-Evans rats. How it is done:
In this test the compounds are administered orally to male Long-Evans rats in a universal starch vehicle. The rats have been pre-conditioned to make a 70% avoidance response. The rats are placed in individual cages and a warning tone is sounded every 20 seconds. Each rat has the opportunity to press a bar which, if done within 5 seconds, prevents an electric shock through the grid floor of the cage and is termed an avoidance response. Each rat is given 50 trials and a score of avoidance responses is kept. The drug is administered at various dose levels. […]

Test [4] can be described thus: Inhibition of tetrabenazine induced depression of exploratory behavior in mice. The conditions noted are these: for Number Responded/Number Treated: intraperitoneally or orally, 1 h before tetrabenazine 30 mg/kg. The test is classed as in vivo. The protocol: Varying doses of the test compounds are administered intraperitoneally or orally to 5 mice one hour before the administration of tetrabenazine hexamate at an intraperitoneal dose of 30 mg/kg which is known to depress markedly the exploratory behavior of normal mice. Thirty minutes later the mice are tested for their exploratoy behavior. Individual mice are placed in the center of a horizontal disc. Inhibition of the depression induced by tetrabenazine is considered present if the mice perform one or more of the following actions within 10 seconds after being placed on the disc:
(1) Animals move to the edge of the disc and pear over the side.
(2) Animals move 180° in place.
(3) Animals display a head movement of 90° immediately followed by a head movement in the opposite direction of at least 45°.
Administration of the test compounds to additional groups of 5 mice is repeated, the numbers of individual animals showing an anti-depressant response (normal exploratory behavior) is recorded and the results are analyzed by the following scheme (statistically standardized; significant P = less than 0.05).
The results from several dose levels (acceptance in at least two sequential test procedures) are then used to establish the Range of Active Doses.

Test [5] in a line: Prevention of reserpine-induced hypothermia in rats. It counts as in vivo. Particulars: for ED50: Rattus norvegicus, oral, dose column in mg/kg, read-out: ED50 (95% C.L.). How it is done: Groups of 5 rats were treated orally with graded doses of the test compounds. One hour later the animals were treated with reserpine (solubilized in propylene glycol and citric acid) at a dose of 5 mg/kg intraperitoneally. Rectal temperatures were measured using a YSI Telethermometer. Temperatures were recorded just prior to treatment, one hour later just prior to reserpine administration and at hourly intervals following reserpine administration for 5 hours. […]

The nature of test [6]: Enhancement of yohimbine lethality in mice. The test is classed as in vivo. Particulars: yohimbine 34 mg/kg.
Method: The test compounds were administered intraperitoneally, at various dose levels, to groups of 10 mice. One hour later all mice received yohimbine at a dose (34 mg/kg) estimated to have a lethal effect in 4% of the mice. Deaths were recorded 18 to 24 hours later.
Test [7] can be described thus: modified Randall and Selitto analgesic test, brewers yeast inflamed paw. The conditions noted are these: 200 mg/Kg oral; two hours after yeast; active if T/C ≥ 1.37. The test is classed as in vivo, rats. The protocol:
To determine analgesic activity, a modification of the method of Randall and Selitto [Arch. Int. […] This test measures the pain threshold of rats whose paws are made sensitive to pressure by the injection of 0.1 ml. of a 20% aqueous suspension of brewers yeast into the plantar surface of the left hind paw. Constantly increasing force (16 g/second) is applied to the swollen paw using an Analgesy Meter, Ugo Basile. The pressure is cut off at 250 g. of force when there is no response (sudden struggle or vocalization). […] Pressure-pain thresholds are always recorded two hours after administration of Brewers' yeast. Test compounds are administered at the same time as the yeast, at an oral dose of 200 mg/Kg. Ratios of treated (T)/control (C) reaction thresholds are calculated as estimates of analgesic efficacy (degree of analgesia obtainable).

The nature of a further test: reversible ptosis test. It counts as in vivo. The conditions noted are these: oral, rats. How it is done: A useful test for anti-psychotic activity consists of measuring ptosis in animals.
Ptosis is defined as closure of the palpebral aperture (eyelid) greater than 70%. The compounds to be tested were administered orally to groups of 10 rats each. Periodically after treatment the rats were gently placed on the cage top and examined for 90 seconds for signs of ptosis. This manipulation eliminates spontaneous ptosis. The rats were then dropped from a height of about 18 inches (exteroceptive stimulation) onto the cage top to test for reversibility of ptosis. Reversible ptosis is defined as less than 70% closure of the palpebral aperture for longer than one minute after the exteroceptive stimulation and is indicative of neuroleptic activity of the drug administered.

Several values for one entry are separate records, joined by “and”; a condition that tells them apart may be missing. Identical values can stand only once.

`CN1CCN(C2=Nc3ccccc3N(C)c3cscc32)CC1` [4-Methyl-10-(4-methyl-1-piperazinyl)-4H-thieno[3,4-b][1,5]benzodiazepine]: the “No. of Writhes Per Pair” value in test [1] (50 mg/kg oral) was 0. For the same compound, the ED50 in test [2] was 12 mg/kg; in test [3], 17 mg/kg; in test [4] (Mus musculus, calculated by method of Finney, dose column in mg/kg, read-out: ED50 (95% C.L.)) it was 4.2 mg/kg; in test [5] (2 hours after reserpine), 1.6 mg/kg; in test [5] (3 hours after reserpine) it was 2.9 mg/kg; in test [5] (4 hours after reserpine), 3.5 mg/kg. Also, the “Number Responded/Number Treated” value in test [4] (0.78 mg/kg) is given as 1/10; in test [4] (1.56 mg/kg), 3/10; in test [4] (3.13 mg/kg) it was 6/10; in test [4] (6.25 mg/kg) it was 6/10; in test [4] (12.5 mg/kg), 7/10; in test [4] (25.0 mg/kg), 8/10. Also, the “Percent of Animals Showing > Two Standard Deviations in Rectal Temperature Over Control Means” value came out at 0% in test [5] (0.20 mg/kg oral, 2 hours after reserpine); 0% in test [5] (0.20 mg/kg oral, 3 hours after reserpine); 0% in test [5] (0.20 mg/kg oral, 4 hours after reserpine); 0% in test [5] (0.20 mg/kg oral, 5 hours after reserpine); 0% in test [5] (0.39 mg/kg oral, 2 hours after reserpine); 0% in test [5] (0.39 mg/kg oral, 3 hours after reserpine). Besides, the “Percent of Animals Showing > Two Standard Deviations in Rectal Temperature Over Control Means” value in test [5] (0.39 mg/kg oral, 4 hours after reserpine) turned out to be 0%; in test [5] (0.39 mg/kg oral, 5 hours after reserpine), 0%; in test [5] (0.78 mg/kg oral, 2 hours after reserpine) it was 33%; in test [5] (0.78 mg/kg oral, 3 hours after reserpine), 7%; in test [5] (0.78 mg/kg oral, 4 hours after reserpine), 7%; in test [5] (0.78 mg/kg oral, 5 hours after reserpine) it was 27%. Moreover, the “Percent of Animals Showing > Two Standard Deviations in Rectal Temperature Over Control Means” value in test [5] (1.56 mg/kg oral, 2 hours after reserpine) was found to be 100%; in test [5] (1.56 mg/kg oral, 3 hours after reserpine) it was 40%; in test [5] (1.56 mg/kg oral, 4 hours after reserpine), 0%; in test [5] (1.56 mg/kg oral, 5 hours after reserpine), 60%; in test [5] (3.13 mg/kg oral, 2 hours after reserpine), 50%; in test [5] (3.13 mg/kg oral, 3 hours after reserpine) it was 30%. Also, the “Percent of Animals Showing > Two Standard Deviations in Rectal Temperature Over Control Means” value in test [5] (3.13 mg/kg oral, 4 hours after reserpine) was determined as 30%; in test [5] (3.13 mg/kg oral, 5 hours after reserpine), 20%; in test [5] (6.25 mg/kg oral, 2 hours after reserpine), 80%; in test [5] (6.25 mg/kg oral, 3 hours after reserpine), 80%; in test [5] (6.25 mg/kg oral, 4 hours after reserpine) it was 80%; in test [5] (6.25 mg/kg oral, 5 hours after reserpine), 0%. In addition, the “Percent of Animals Showing > Two Standard Deviations in Rectal Temperature Over Control Means” value turned out to be 100% in test [5] (12.5 mg/kg oral, 2 hours after reserpine); 100% in test [5] (12.5 mg/kg oral, 3 hours after reserpine); 100% in test [5] (12.5 mg/kg oral, 4 hours after reserpine); 20% in test [5] (12.5 mg/kg oral, 5 hours after reserpine). In addition, the “Number Dead/Number Treated” value in test [6] (10 mg/kg intraperitoneal, 18 hours) is on record as 3/10; in test [6] (10 mg/kg intraperitoneal, 24 hours), 8.10; in test [6] (20 mg/kg intraperitoneal, 18 hours), 6/10; in test [6] (20 mg/kg intraperitoneal, 24 hours), 8/10; in test [6] (40 mg/kg intraperitoneal, 18 hours), 4/10; in test [6] (40 mg/kg intraperitoneal, 24 hours) it was 8/10.

For the compound `CN1CCN(C2=Nc3cc(Cl)ccc3N(C)c3cscc32)CC1.[O-][Cl+3]([O-])([O-])O.[O-][Cl+3]([O-])([O-])O` [7-Chloro-4-methyl-10-(4-methyl-1-piperazinyl)-4H-thieno[3,4-b][1,5]benzodiazepine diperchlorate], the “Ratio T/C (treated/control reaction thresholds)” value in test [7] is listed as 1.55. Moreover, in test [2], the ED50 stood at 25 mg/kg.

Take `CN1CCN(C2=Nc3ccccc3Nc3cscc32)CC1` [10-(4-Methyl-1-piperazinyl)-4H-thieno[3,4-b][1,5]benzodiazepine]: the “No. of Writhes Per Pair” value in test [1] (6.25 mg/kg oral) is 4 and 2. The “Ratio T/C (treated/control reaction thresholds)” value in test [7] is 1.57. The ED50 is 6.1 mg/kg in test [2] and 7 mg/kg in test [3]. The “ED50 (dose estimated to create reversible ptosis in 50% of the animals)” value in “reversible ptosis test” is 13 mg/kg.
